Assay results: patent US20100184596A1, “METHOD FOR THE CONTROL OF WEEDS IN TURF” (SYNGENTA CROP PROTECTION, INC., priority 2007, published 2010)

Experiments:
Type in all cases: in vivo
Dandelion = assay: Selective post-emergence herbicidal action, field trial Hudson (Table B1.2); settings: 28 days after application
Protocol: (§1) The selectivity of the compound of formula I in turf (removal of grassy and broadleaf weeds) has been tested in turfgrass varieties selected from Kentucky bluegrass, tall fescue and perennial ryegrass and in […] selected from clover (an aggressive perennial weed) and dandelion (a weed of perennial horticultural crops and gardens which may also be a problem in some annual crops, particularly where reduced tillage is practiced).
(§2) The trials were conducted in Champaign, Ill., U.S. (Table B1.1) and Hudson, N.Y., U.S. (Table B1.2) under field conditions. Turfgrasses were maintained at approximately a 2.5″ height, like a home lawn. Mixed turf and weed stands were present. The test compounds were applied with a CO2 pressurized backpack sprayer by spraying in the form of an aqueous suspension (prepared from a wettable powder) in a concentration of 210 to 280 g/ha. The plots were then mowed and irrigated as needed. After 22 and 28 days respectively, the test is visually evaluated (100%=total damage to plant; 0%=no damage to plant).

Tall fescue = assay: as above; settings: 28 days after application
Protocol: as §1, §2

St. Augustinegrass = assay: Phytotoxicity via post emergence spray application (Table B2.1)
Protocol: The phytotoxicity of the compound of formula I to turfgrass species was tested. The compound was applied via post emergence spray to a range of warm and cool season turfgrass species at various rates and spray treatment treatment regimes. Percentage phytotoxicity assessments were taken at various timepoints.

[1] = system: Digitaria ischaemum (smooth crabgrass); assay: Weed control via post emergence spray, in bluegrass/fescue mix (Table B5.7)
Protocol: The weed control efficacy of the compound of formula I was tested. The compound was applied via post emergence spray to a range of weeds, at various rates and spray treatment treatment regimes. Percentage weed control assessments were taken at various timepoints.

`COCCOCc1nc(C(F)(F)F)ccc1C(=O)C1=C(O)C2CCC(C2)C1=O` (centres unmarked) [Formula I, 4-Hydroxy-3-[2-(2-methoxyethoxymethyl)-6-trifluoromethylpyridine-3-carbonyl]-bicyclo[3.2.1]oct-3-en-2-one] was tested, and the “% damage” value (Dandelion; 210 g/ha) was 82.5%, the “% damage” value (Dandelion; 280 g/ha) was 90% and the “% damage” value (Tall fescue; 210 g/ha) was 0%. For the same molecule, the “% damage” value (Tall fescue; 280 g/ha) was 0%, the “% phytotoxicity” value (St. Augustinegrass; 1 appl, 140 g ai/ha, 8 DAT) was 36.67% and the “% phytotoxicity” value (St. Augustinegrass; 1 appl, 140 g ai/ha, 14 DAT) was 28.33%. For the same molecule, the “% phytotoxicity” value (St. Augustinegrass; 1 appl, 140 g ai/ha, 29 DAT) was 0.00%, the “% phytotoxicity” value (St. Augustinegrass; 1 appl, 140 g ai/ha, 35 DAT) was 0.00% and the “% phytotoxicity” value (St. Augustinegrass; 1 appl, 140 g ai/ha, 43 DAT) was 0.00%. The “% phytotoxicity” value (St. Augustinegrass; 1 appl, 140 g ai/ha, 51 DAT) was 0.00%, the “% phytotoxicity” value (St. Augustinegrass; 1 appl, 280 g ai/ha, 8 DAT) was 40.00% and the “% phytotoxicity” value (St. Augustinegrass; 1 appl, 280 g ai/ha, 14 DAT) was 43.33%. The “% phytotoxicity” value (St. Augustinegrass; 1 appl, 280 g ai/ha, 29 DAT) was 0.00%, the “% phytotoxicity” value (St. Augustinegrass; 1 appl, 280 g ai/ha, 35 DAT) was 0.00% and the “% phytotoxicity” value (St. Augustinegrass; 1 appl, 280 g ai/ha, 43 DAT) was 0.00%. For the same molecule, the “% phytotoxicity” value (St. Augustinegrass; 1 appl, 280 g ai/ha, 51 DAT) was 0.00%, the “% phytotoxicity” value (St. Augustinegrass; 2 appl, 140 g ai/ha, 8 DAT) was 43.33% and the “% phytotoxicity” value (St. Augustinegrass; 2 appl, 140 g ai/ha, 14 DAT) was 40.00%. The “% phytotoxicity” value (St. Augustinegrass; 2 appl, 140 g ai/ha, 29 DAT) was 0.00%, the “% phytotoxicity” value (St. Augustinegrass; 2 appl, 140 g ai/ha, 35 DAT) was 28.33% and the “% phytotoxicity” value (St. Augustinegrass; 2 appl, 140 g ai/ha, 43 DAT) was 8.33%. For the same molecule, the “% phytotoxicity” value (St. Augustinegrass; 2 appl, 140 g ai/ha, 51 DAT) was 1.67%, the “% phytotoxicity” value (St. Augustinegrass; 2 appl, 280 g ai/ha, 8 DAT) was 41.67% and the “% phytotoxicity” value (St. Augustinegrass; 2 appl, 280 g ai/ha, 14 DAT) was 51.67%. For the same molecule, the “% phytotoxicity” value (St. Augustinegrass; 2 appl, 280 g ai/ha, 29 DAT) was 0.00%, the “% phytotoxicity” value (St. Augustinegrass; 2 appl, 280 g ai/ha, 35 DAT) was 30.00% and the “% phytotoxicity” value (St. Augustinegrass; 2 appl, 280 g ai/ha, 43 DAT) was 11.67%. The “% phytotoxicity” value (St. Augustinegrass; 2 appl, 280 g ai/ha, 51 DAT) was 5.00%, the “% control” value ([1]; 10 g ai/ha, 7 DAT) was 0.00% and the “% control” value ([1]; 10 g ai/ha, 14 DAT) was 0.00%. For the same molecule, the “% control” value ([1]; 10 g ai/ha, 22 DAT) was 0.00%, the “% control” value ([1]; 10 g ai/ha, 29 DAT) was 0.00% and the “% control” value ([1]; 10 g ai/ha, 46 DAT) was 1.25%. The “% control” value ([1]; 20 g ai/ha, 7 DAT) was 0.00%, the “% control” value ([1]; 20 g ai/ha, 14 DAT) was 2.50% and the “% control” value ([1]; 20 g ai/ha, 22 DAT) was 5.00%. For the same molecule, the “% control” value ([1]; 20 g ai/ha, 29 DAT) was 3.75%, the “% control” value ([1]; 20 g ai/ha, 46 DAT) was 7.50% and the “% control” value ([1]; 40 g ai/ha, 7 DAT) was 0.00%. For the same molecule, the “% control” value ([1]; 40 g ai/ha, 14 DAT) was 0.00%, the “% control” value ([1]; 40 g ai/ha, 22 DAT) was 2.50% and the “% control” value ([1]; 40 g ai/ha, 29 DAT) was 8.75%. For the same molecule, the “% control” value ([1]; 40 g ai/ha, 46 DAT) was 30.00%, the “% control” value ([1]; 80 g ai/ha, 7 DAT) was 0.00% and the “% control” value ([1]; 80 g ai/ha, 14 DAT) was 0.00%. The “% control” value ([1]; 80 g ai/ha, 22 DAT) was 5.00%, the “% control” value ([1]; 80 g ai/ha, 29 DAT) was 17.50% and the “% control” value ([1]; 80 g ai/ha, 46 DAT) was 51.25%. The “% control” value ([1]; 160 g ai/ha, 7 DAT) was 0.00%, the “% control” value ([1]; 160 g ai/ha, 14 DAT) was 6.25% and the “% control” value ([1]; 160 g ai/ha, 22 DAT) was 8.75%. For the same molecule, the “% control” value ([1]; 160 g ai/ha, 29 DAT) was 20.00% and the “% control” value ([1]; 160 g ai/ha, 46 DAT) was 70.00%.
